In PubChem BioAssay (NCI):
“And” between values parts separate entries of the source, which are not always exact repeats. Equal values may be shown once.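 Grown in 96-well plates, cells were treated for 48 hours with each compound at five concentrations. Insufficient inhibition: endpoint recorded as highest concentration tested. The concentration for 50% growth inhibition is given as GI50. The concentration for full growth arrest is given as TGI.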

Key:
Assay in all cases: DTP human tumour cell line panel, 48 h
DMS 273 small cell lung = test system: DMS 273 small cell lung
OVCAR-8 ovarian = test system: OVCAR-8 ovarian
DMS 114 small cell lung = test system: DMS 114 small cell lung
LXFL 529 NSCLC = test system: LXFL 529 NSCLC
DLD-1 colon = test system: DLD-1 colon
M19-MEL melanoma = test system: M19-MEL melanoma
ACHN renal = test system: ACHN renal
MOLT-4 leukemia = test system: MOLT-4 leukemia
M14 melanoma = test system: M14 melanoma
HCT-116 colon = test system: HCT-116 colon
NCI-H23 lung = test system: NCI-H23 lung
PC-3 prostate = test system: PC-3 prostate
MDA-MB-435 = test system: MDA-MB-435

SMILES | TGI (DMS 273 small cell lung) | TGI (OVCAR-8 ovarian) | TGI (DMS 114 small cell lung) | TGI (LXFL 529 NSCLC) | TGI (DLD-1 colon) | TGI (M19-MEL melanoma) | TGI (ACHN renal) | TGI (MOLT-4 leukemia) | TGI (M14 melanoma) | TGI (HCT-116 colon) | TGI (NCI-H23 lung) | TGI (PC-3 prostate) | TGI (MDA-MB-435) | GI50 (OVCAR-8 ovarian) | GI50 (MOLT-4 leukemia) | GI50 (MDA-MB-435)
N#CN/C(N)=N/C/N=C(\N)NC#N | > 100 µM | > 100 µM | > 100 µM | > 100 µM | > 100 µM | > 100 µM | > 100 µM | > 100 µM | > 100 µM | > 100 µM | > 100 µM |  |  |  |  | 
Brc1ccc(C[P+]2(c3ccccc3)CCCCC2)cc1 | > 100 µM | > 100 µM | > 100 µM | > 100 µM | > 100 µM | 76.4 µM | > 100 µM | > 100 µM | > 100 µM | > 100 µM | > 100 µM |  |  |  |  | 
NC(=S)/N=C(/c1nc2ccc(Cl)cc2[nH]c1=O)C(O)c1ccccc1Cl (stereo unspecified) | > 100 µM | > 100 µM | > 100 µM | > 100 µM | > 100 µM |  | > 100 µM | > 100 µM | > 100 µM |  | > 100 µM |  |  |  |  | 
[N-]=[N+]=NC(c1cn(C2CC(O)C(CO)O2)c(=O)[nH]c1=O)C(Br)Br (stereo unspecified) | > 100 µM | > 100 µM | > 100 µM | > 100 µM | > 100 µM | > 100 µM | > 100 µM | > 100 µM | > 100 µM | > 100 µM | > 100 µM |  |  |  |  | 
CN(C(=O)C12C3C4C5C3C1(C(=O)C13C6C7C8C6C1C8C73)C5C42)C(C)(C)C (stereo unspecified) | > 30 µM | > 50 µM | > 37.6 µM | > 50 µM | > 34.7 µM | > 50 µM | > 50 µM | > 50 µM | > 50 µM | 18.5 µM | > 50 µM |  |  |  |  | 
O=C(c1nc2ccc([N+](=O)[O-])cc2[nH]c1=O)C(O)c1ccc2c(c1)OCO2 (stereo unspecified) | > 100 µM | > 100 µM | > 100 µM | > 100 µM | > 100 µM | > 100 µM | > 100 µM | > 100 µM | > 100 µM | > 100 µM | > 100 µM | > 100 µM | > 100 µM |  |  | 
CN(Cc1cnc2nc(N)nc(N)c2n1)c1ccc(C(=O)N[C@@H](CCC(=O)O)C(=O)O)cc1 | 210 µM | > 250 µM | 191 µM | > 250 µM | > 250 µM | > 250 µM | > 233 µM | 159 µM | 240 µM and > 250 µM |  | 117 µM | > 250 µM | > 250 µM | 70.3 nM and 488 nM | 0.0278 µM | 67.2 nM and 44.1 nM
O=c1cc(CO)oc2c3c(cc(O)c12)OCC(COC1OC(CO)C(O)C(O)C1O)=CC3 (stereo unspecified) | > 100 µM | > 100 µM | > 100 µM | > 100 µM | > 100 µM | > 100 µM | > 100 µM | > 100 µM | > 100 µM | > 100 µM | > 100 µM |  |  |  |  | 
COc1ccc(C(=O)O[C@H]2[C@@H]3C=CO[C@@H](OC4OC(CO)C(O)C(O)C4O)[C@@H]3[C@@]3(CO)O[C@@H]23)cc1O (stereo partly specified) | > 100 µM | > 100 µM | > 100 µM | > 100 µM | > 100 µM | > 100 µM | > 100 µM | > 100 µM | > 100 µM |  | > 100 µM |  |  |  |  | 
CCN(CC)CCCNc1ccc2nc(C)n3c4ccc(O)cc4c(=O)c1c23 | 13.4 µM | 19.6 µM | 21.5 µM | 19.3 µM | 16.2 µM | 23.8 µM | 15.2 µM | 17 µM | 21.5 µM | 11.1 µM | 15.8 µM | 12.6 µM | 22 µM |  |  | 
Clc1ccc(C(c2ccccc2Cl)C(Cl)Cl)cc1 (stereo unspecified) | 36 µM | 40 µM | 36.7 µM | 38.2 µM | 38.6 µM | 39 µM | 38.8 µM | 41.1 µM | 37.1 µM | 31.4 µM | 37.7 µM | 35.5 µM | 32 µM |  |  | 
COc1ccc(C(c2c(O)c3ccccc3n(-c3ccccc3)c2=O)c2c(O)c3ccccc3n(-c3ccccc3)c2=O)cc1 | > 100 µM |  | > 100 µM | > 100 µM | > 100 µM | > 100 µM | > 100 µM | > 100 µM |  | > 100 µM | > 100 µM |  |  |  |  | 
COc1ccc(N=NC(C(=O)c2ccccc2)C(=O)c2ccccc2)cc1 | 56.7 µM | > 100 µM | 54.6 µM | > 100 µM | 96.6 µM |  | 86.1 µM | 72.2 µM | 33.4 µM | 38.8 µM | 65.3 µM |  |  |  |  | 
CCOc1ccc2[nH]c3c(C)c4ccncc4c(C)c3c2c1 | 1.64 µM |  | 3.01 µM | 1.98 µM | 1.96 µM | 3.1 µM | 2.25 µM |  | 2.9 µM | 1.78 µM | 3.01 µM |  |  |  |  | 
CCOC(=O)C1=C(O)C2C3CC4C2C(O)=C(C(=O)OCC)C2C1C3C42 (stereo unspecified) |  | > 100 µM |  |  |  |  | > 100 µM | > 100 µM | > 100 µM | > 100 µM | > 100 µM | > 100 µM | > 100 µM |  |  | 
Clc1ccc(C2=NN=C3C(c4ccccc4)=Nc4ccccc4N3C2)cc1 |  | > 100 µM |  |  |  |  | > 100 µM | > 23.2 µM | > 25.8 µM | > 100 µM | > 100 µM | > 100 µM | > 100 µM |  |  | 
O=S(=O)(Nc1nc2ccccc2nc1Nc1ccc2ccccc2c1)c1ccccc1 |  | > 100 µM |  |  |  |  | > 100 µM | 65.1 µM | > 57.2 µM | 24.8 µM | 41.3 µM | > 37.2 µM | > 100 µM |  |  | 
C=C(C(=O)O)[C@@H]1C[C@@H]2O[C@H]1[C@@H](O)[C@@H](C)CCCC(C)=CCC[C@@]2(C)O |  | > 100 µM |  |  |  |  | > 100 µM | > 100 µM | > 100 µM | > 100 µM | > 100 µM | > 100 µM | > 100 µM |  | 27.2 µM and 56.9 µM | 
COC(=O)CCC1=C(CC(=O)OC)C(C)(OC)N=C1NC(=O)OCc1ccccc1 (stereo unspecified) |  | > 100 µM |  |  |  |  | > 100 µM | > 100 µM | > 100 µM | > 100 µM | > 100 µM | > 100 µM | > 100 µM |  |  | 
O=C(/C=C/c1cccc(Oc2ccccc2)c1)NCc1ccc(C(=O)NCc2ccccc2)cc1 |  | > 100 µM |  |  |  |  | > 100 µM | > 100 µM | > 100 µM | > 100 µM | > 100 µM | > 100 µM | > 100 µM |  |  | 
CN1C/C(=C\c2cccs2)C(O)/C(=C/c2cccs2)C1 (stereo unspecified) |  | > 100 µM |  |  |  |  | > 100 µM | 69.6 µM | > 100 µM | > 100 µM | > 100 µM | > 100 µM | > 100 µM |  |  | 
CC1(C)OC2[C@@H](CO[C@@]3([C@@H](O)CCO)OC(C)(C)O[C@@H]23)O1 (stereo partly specified) |  | > 100 µM |  |  |  |  | > 100 µM | > 100 µM | > 100 µM | > 100 µM | > 100 µM | > 100 µM | > 100 µM |  |  | 
COc1c(/C=C/C(C)(C)O)cc(C2CC(=O)c3c(O)cc(O)cc3O2)cc1CC=C(C)C (stereo unspecified) |  | 23.1 µM |  |  |  |  | 14.3 µM | 35 µM | 16 µM | 18.4 µM | 18.3 µM | 16.3 µM | 15.3 µM |  |  | 
NC1=C(NC(=O)Cc2ccccc2F)C(=O)c2ccccc2C1=O | > 100 µM | > 100 µM | > 100 µM |  | 52.9 µM | 24.5 µM | > 100 µM | > 100 µM | > 100 µM | > 100 µM | > 100 µM |  |  |  |  | 
COc1ccc2nc(-c3ccccc3)cc(OCC(=O)O)c2c1 |  | > 100 µM |  |  |  |  | > 100 µM | > 100 µM | > 100 µM | > 100 µM | > 100 µM | > 100 µM | > 100 µM |  |  | 
Cc1ccc2c(c1)C(=O)c1nc(C)ccc1C2=O |  | 97.5 µM |  |  |  |  | > 100 µM | > 100 µM | > 100 µM | 60.6 µM | 56.7 µM | > 100 µM | 44 µM |  |  | 
CCOC(=O)c1c(N=P(c2ccccc2)(c2ccccc2)c2ccccc2)nnc(-c2ccccc2)c1-c1ccccc1 |  | > 100 µM |  |  |  |  | > 100 µM | > 100 µM | > 100 µM | > 100 µM | > 100 µM | > 100 µM | > 100 µM |  |  | 
CS(=O)(=O)OCCN(CCOS(C)(=O)=O)c1ccc(C=Nc2cccc(Cl)c2)cc1 |  | > 100 µM |  |  |  |  | 0.651 µM | 1.31 µM | 55.5 µM | > 100 µM | 10.6 µM | > 100 µM | 30.3 µM |  |  | 
